The values below come from ChEMBL document CHEMBL1126835, “QSAR's from similarity matrices. Technique validation and application in the comparison of different similarity evaluation methods” (J Med Chem, 1993).

Structures are written as SMILES.

For one data set, the target named is T1, Monoamine oxidase (Homo sapiens, UniProt P21397+P27338).
T1 sequence (P21397 whole entry): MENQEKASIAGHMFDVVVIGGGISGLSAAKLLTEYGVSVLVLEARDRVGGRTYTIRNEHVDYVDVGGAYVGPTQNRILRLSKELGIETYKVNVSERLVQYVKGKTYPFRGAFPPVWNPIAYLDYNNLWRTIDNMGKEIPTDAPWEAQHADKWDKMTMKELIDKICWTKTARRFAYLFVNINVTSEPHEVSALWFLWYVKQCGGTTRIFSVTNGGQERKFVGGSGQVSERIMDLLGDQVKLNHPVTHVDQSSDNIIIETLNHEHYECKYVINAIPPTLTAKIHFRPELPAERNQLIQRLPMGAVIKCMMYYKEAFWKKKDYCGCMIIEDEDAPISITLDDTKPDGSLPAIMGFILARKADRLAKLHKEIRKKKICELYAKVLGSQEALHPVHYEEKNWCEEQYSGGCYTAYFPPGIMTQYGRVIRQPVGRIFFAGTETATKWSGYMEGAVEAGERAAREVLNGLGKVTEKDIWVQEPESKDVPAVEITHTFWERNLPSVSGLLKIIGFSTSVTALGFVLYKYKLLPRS
T1 sequence (P27338 whole entry): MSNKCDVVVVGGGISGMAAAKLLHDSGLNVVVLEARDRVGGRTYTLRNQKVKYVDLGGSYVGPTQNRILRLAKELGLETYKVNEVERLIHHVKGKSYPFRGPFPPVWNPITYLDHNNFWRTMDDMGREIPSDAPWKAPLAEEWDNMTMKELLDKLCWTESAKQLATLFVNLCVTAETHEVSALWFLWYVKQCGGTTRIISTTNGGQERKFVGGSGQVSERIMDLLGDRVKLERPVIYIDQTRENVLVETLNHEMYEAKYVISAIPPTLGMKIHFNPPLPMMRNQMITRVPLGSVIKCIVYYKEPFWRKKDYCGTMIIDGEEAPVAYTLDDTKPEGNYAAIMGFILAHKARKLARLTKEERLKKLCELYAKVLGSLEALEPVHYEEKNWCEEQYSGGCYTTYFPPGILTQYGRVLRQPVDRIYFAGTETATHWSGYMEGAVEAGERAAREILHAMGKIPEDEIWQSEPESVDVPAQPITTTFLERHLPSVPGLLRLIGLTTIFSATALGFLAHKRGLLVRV
Kind of data set: Binding affinity towards monoaminooxidase Relative to MPTP. In kind it is protein assay.
Compound `CN1CC=C(c2ccccc2)CC1` registered a Relative activity of 3. Compound `CN1CC=C(C2CCCCC2)CC1` gave a Relative activity of 3. On to `CN1CC=C(c2ccc(F)cc2)CC1`, for which the Relative activity turned out to be 2.

Consider `CCCCN1CC=C(c2ccccc2)CC1`, for which the Relative activity was found to be 1. Same read-out and setting: the result for `Cc1cccc(C)c1C1=CCN(C)CC1` reads 3; that for `CCCN1CC=C(c2ccccc2)CC1`, 1; that for `C1=C(c2ccccc2)CCN(Cc2ccccc2)C1`, 1. In turn, `Clc1ccc(C2=CCNCC2)cc1` returned a Relative activity of 2.

`CN1CC=C(c2ccccc2C(F)(F)F)CC1` had a Relative activity of 3. Same read-out and setting: the result for `C1=C(c2ccccc2)CCNC1` reads 3; that for `CCN1CC=C(c2ccccc2)CC1`, 2; that for `C1=C(c2ccccc2)CCN(CC2CC2)C1`, 1. `CCC1=CCN(C)CC1` registered a Relative activity of 2. In the case of `CCN1CC=CCC1`, the Relative activity was 2. The same measure, in the same setting: the result for `CN1CC=C(c2cccs2)CC1` reads 2; that for `CN1CC=C(c2cccc(F)c2)CC1`, 3. With `CCc1ccccc1C1=CCN(C)CC1`, the Relative activity was determined as 3. Same read-out and setting: the result for `CN1CC=C(Cc2ccccc2)CC1` reads 3; that for `CC1=C(c2ccccc2)CCN(C)C1`, 2; that for `C/C(=C\CN(C)C)c1ccccc1`, 3. Same read-out and setting: with `CN1CC=C(c2cccc(Br)c2)CC1` the figure was 3; with `CN1CC=C(c2cccn2C)CC1`, 3. For the compound `Cc1cccc(C2=CCN(C)CC2)c1`, the Relative activity is given as 3.

Take `Cc1ccccc1C1=CCN(C)CC1`: the Relative activity was found to be 3. `Fc1ccc(C2=CCNCC2)cc1` showed a Relative activity of 2. In turn, `CN1CC=C(C(C)(C)C)CC1` registered a Relative activity of 2. Take `CN1CC=C(c2cccc(Cl)c2)CC1`: the Relative activity came to 3. Still for that read-out and setting: with `CN1CC=C(c2ccc(Cl)cc2)CC1` the figure was 2; with `Cc1ccc(C2=CCN(C)CC2)cc1`, 2; with `COc1cccc(C2=CCN(C)CC2)c1`, 2. The same measure, in the same setting: with `CC(C)N1CC=C(c2ccccc2)CC1` the figure was 1; with `N#CCCC(=O)N1CC=C(c2ccccc2)CC1`, 1; with `C=CCN1CC=C(c2ccccc2)CC1`, 1. On the same count and under the same terms, the result for `CC1CN(C)CC=C1c1ccccc1` (stereo not drawn) reads 2.

The species entered for a further data set is Gallus gallus. As to the kind of experiment: Tested for anti-coccidial activity. The class given is functional.
Regarding `Cc1cc(-n2ncc(=O)[nH]c2=O)ccc1Oc1ccc(Cl)cc1`, the “Log 1/MEC” value was 0.74.

Turning to `O=c1cnn(-c2ccc(Oc3ccc(I)cc3)c(Cl)c2)c(=O)[nH]1`, the “Log 1/MEC” value turned out to be 1.77.

In the case of `Cc1cc(-n2ncc(=O)[nH]c2=O)cc(Cl)c1Sc1ccc(Cl)cc1`, the “Log 1/MEC” value is on record as 3.28. For the compound `Cc1cc(-n2ncc(=O)[nH]c2=O)cc(Cl)c1Oc1ccc(C(C)O)cc1` (stereo not drawn), the “Log 1/MEC” value amounted to 2.27. Same read-out and setting: with `O=c1cnn(-c2cccc(Cl)c2)c(=O)[nH]1` the figure was 0.25; with `O=c1cnn(-c2ccc(Oc3ccc4cc(Br)ccc4c3)c(Cl)c2)c(=O)[nH]1`, 1.77. The same measure, in the same setting: the result for `O=c1cnn(-c2ccccc2)c(=O)[nH]1` reads -0.42; that for `Cc1cc(-n2ncc(=O)[nH]c2=O)cc(C)c1Sc1ccc(Cl)cc1` [TIAZURIL], 2.86; that for `O=c1cnn(-c2ccc(S(=O)(=O)c3ccccc3)cc2)c(=O)[nH]1`, 1.04. Same read-out and setting: with `O=c1cnn(-c2ccc(S(=O)(=O)N3CCOCC3)c(Cl)c2)c(=O)[nH]1` the figure was 1.09; with `O=c1cnn(-c2ccc(S(=O)(=O)c3ccc(Cl)cc3)cc2)c(=O)[nH]1`, 1.96; with `N#CC(c1ccc(Cl)cc1)c1c(Cl)cc(-n2ncc(=O)[nH]c2=O)cc1Cl` (stereo not drawn) [DICLAZURIL], 3.61. Regarding `O=c1cnn(-c2cc(Cl)c(S(=O)(=O)N3CCOCC3)c(Cl)c2)c(=O)[nH]1`, the “Log 1/MEC” value is reported as 1.13. On the same count and under the same terms, with `Cc1cc(-n2ncc(=O)[nH]c2=O)cc(C)c1S(=O)(=O)c1ccc(Cl)cc1` the figure was 2.59; with `O=c1cnn(-c2ccc(S(=O)(=O)c3ccc(Br)cc3)cc2)c(=O)[nH]1`, 1.71. With `Cc1cc(-n2ncc(=O)[nH]c2=O)ccc1Oc1ccc(Cl)cc1Cl`, the “Log 1/MEC” value worked out at 1.69. With `CC(=O)c1ccc(Sc2c(C)cc(-n3ncc(=O)[nH]c3=O)cc2Cl)cc1`, the “Log 1/MEC” value is recorded as 3.19. Consider `COc1cc(-n2ncc(=O)[nH]c2=O)cc(OC)c1OC`, for which the “Log 1/MEC” value is recorded as -0.55. On the same count and under the same terms, the result for `Cc1cc(Cl)cc(-n2ncc(=O)[nH]c2=O)c1` reads 1.2. `Cc1cc(-n2ncc(=O)[nH]c2=O)cc(C)c1S(=O)(=O)N1CCOCC1`: the “Log 1/MEC” value is recorded as 1.39.

For `O=c1cnn(-c2cc(Cl)c(S(=O)(=O)c3ccc(Cl)cc3)c(Cl)c2)c(=O)[nH]1`, the “Log 1/MEC” value worked out at 2.94. The same measure, in the same setting: with `CCN(C)S(=O)(=O)c1ccc(Oc2c(C)cc(-n3ncc(=O)[nH]c3=O)cc2Cl)c(Cl)c1` the figure was 2.11; with `O=c1cnn(-c2ccc(Br)c(C(F)(F)F)c2)c(=O)[nH]1`, 1.35; with `O=c1cnn(-c2cc(Cl)c(Cc3ccc(Cl)cc3)c(Cl)c2)c(=O)[nH]1`, 3.18.

In the case of `Cc1cc(-n2ncc(=O)[nH]c2=O)ccc1Oc1ccc(Br)cc1`, the “Log 1/MEC” value turned out to be 1.7. The same measure, in the same setting: the result for `O=c1cnn(-c2ccc(Oc3ccc(Cl)cc3Cl)c(Cl)c2)c(=O)[nH]1` reads 1.71; that for `Cc1cc(-n2ncc(=O)[nH]c2=O)cc(C)c1C(=O)c1ccc(Cl)cc1`, 1.38; that for `Cc1cc(-n2ncc(=O)[nH]c2=O)cc(C)c1[S+]([O-])c1ccc(Cl)cc1` (stereo not drawn), 2.58. On the same count and under the same terms, the result for `O=c1cnn(-c2ccc(F)c(C(F)(F)F)c2)c(=O)[nH]1` reads 1.26. Turning to `Cc1cc(-n2ncc(=O)[nH]c2=O)cc(Cl)c1Oc1ccc(S(=O)(=O)NC2CC2)cc1Cl`, the “Log 1/MEC” value turned out to be 1.51. As to `CC(=O)c1ccc(Oc2c(C)cc(-n3ncc(=O)[nH]c3=O)cc2Cl)cc1`, the “Log 1/MEC” value was found to be 2.27. The same measure, in the same setting: with `CSc1ccc(Oc2ccc(-n3ncc(=O)[nH]c3=O)cc2C)cc1` the figure was 2.23; with `CSc1ccc(Oc2c(C)cc(-n3ncc(=O)[nH]c3=O)cc2C)cc1C`, 2.27; with `CS(=O)(=O)c1ccc(-n2ncc(=O)[nH]c2=O)cc1`, -0.27. For `O=c1cnn(-c2ccc(Sc3ccc(Cl)cc3)c(Cl)c2)c(=O)[nH]1`, the “Log 1/MEC” value is 2.26.

Regarding `COc1c(Cl)cc(-n2ncc(=O)[nH]c2=O)cc1Cl`, the “Log 1/MEC” value was determined as 0.06. On the same count and under the same terms, with `CSc1ccc(Oc2ccc(-n3ncc(=O)[nH]c3=O)cc2Cl)cc1` the figure was 1.98; with `Cc1cc(-n2ncc(=O)[nH]c2=O)cc(Cl)c1S(=O)(=O)c1ccc(Cl)cc1`, 1.71; with `COc1cc(OC)cc(-n2ncc(=O)[nH]c2=O)c1`, -0.3.

In the case of `O=c1cnn(-c2ccc(Sc3ccc4ccccc4c3)c(Cl)c2)c(=O)[nH]1`, the “Log 1/MEC” value is 0.48. `O=c1cnn(-c2cc(Cl)c(Sc3ccc(Cl)cc3)c(Cl)c2)c(=O)[nH]1`: the “Log 1/MEC” value is 3.3.

With `O=C(c1ccc(Cl)cc1)c1c(Cl)cc(-n2ncc(=O)[nH]c2=O)cc1Cl`, the “Log 1/MEC” value is recorded as 2.9. Same read-out and setting: the result for `O=c1cnn(-c2ccc(Cc3ccc(Cl)cc3)c(Cl)c2)c(=O)[nH]1` reads 1.64. The same measure, in the same setting: with `Cc1cc(C)cc(-n2ncc(=O)[nH]c2=O)c1` the figure was 0.86. The same measure, in the same setting: the result for `O=c1cnn(-c2ccc(Oc3ccccc3)cc2)c(=O)[nH]1` reads -0.25; that for `Cc1cc(-n2ncc(=O)[nH]c2=O)cc(Cl)c1Oc1ccc(Cl)cc1`, 1.98. As to `Cc1cc(-n2ncc(=O)[nH]c2=O)ccc1C(O)c1ccccc1` (stereo not drawn), the “Log 1/MEC” value is 1.01. The same measure, in the same setting: the result for `Cc1cc(-n2ncc(=O)[nH]c2=O)ccc1Oc1ccc(S(C)(=O)=O)cc1` reads 1.97. On the same count and under the same terms, the result for `O=c1cnn(-c2cc(Cl)cc(Cl)c2)c(=O)[nH]1` reads 1.81. In the case of `O=c1cnn(-c2ccc([N+](=O)[O-])cc2)c(=O)[nH]1`, the “Log 1/MEC” value was -0.03. Same read-out and setting: with `O=c1cnn(-c2cccc(C(F)(F)F)c2)c(=O)[nH]1` the figure was 0.93; with `O=c1cnn(-c2ccc(C(O)c3ccc(Cl)cc3)c(Cl)c2)c(=O)[nH]1` (stereo not drawn), 2.26. Still for that read-out and setting: the result for `N#Cc1cccc(-n2ncc(=O)[nH]c2=O)c1` reads 0.85; that for `CSc1ccc(Oc2c(C)cc(-n3ncc(=O)[nH]c3=O)cc2C)cc1`, 2.25.
